The source of these data is patent US20250321223A1, “ENGINEERING CHEMICALLY INDUCIBLE SPLIT PROTEIN ACTUATORS (CISPA)” (KEMIJSKI INSTITUT, priority 2021, published 2025).

For experiment [1], the target named is split ligand binding domain of estrogen receptor beta (ERβ) (Homo sapiens, UniProt Q92731). The conditions noted are these: HEK293T cells, increasing ligand concentration, compared to cells not stimulated; FIG. 2C. From the text: (§1) The fusion constructs were simultaneously expressed in the HEK293T cell line. […] Following this dimerization, the split reporter fragments (nLuc and cLuc) are brought into the proximity, leading to their reconstitution and measurable output signal (emitted light). The plasmids encoding for the CISPA sensors based on split LBDs were transiently transfected into the HEK293T cell line. A constitutively expressed Renilla luciferase (phRL-TK http://www.promega.com/vectors/prltk.txf) was used as control of transfection efficiency.
Chain of split ligand binding domain of estrogen receptor beta (ERβ) (Q92731 with tags, fused parts or gaps): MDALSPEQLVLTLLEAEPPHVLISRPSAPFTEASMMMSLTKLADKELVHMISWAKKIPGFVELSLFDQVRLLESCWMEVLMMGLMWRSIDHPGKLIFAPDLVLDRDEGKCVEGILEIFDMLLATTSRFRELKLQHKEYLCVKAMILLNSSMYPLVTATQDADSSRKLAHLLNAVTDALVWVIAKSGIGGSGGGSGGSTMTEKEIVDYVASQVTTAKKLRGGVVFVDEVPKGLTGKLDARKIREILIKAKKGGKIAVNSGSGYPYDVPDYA
Chain of split ligand binding domain of estrogen receptor beta (ERβ) (Q92731 with tags, fused parts or gaps): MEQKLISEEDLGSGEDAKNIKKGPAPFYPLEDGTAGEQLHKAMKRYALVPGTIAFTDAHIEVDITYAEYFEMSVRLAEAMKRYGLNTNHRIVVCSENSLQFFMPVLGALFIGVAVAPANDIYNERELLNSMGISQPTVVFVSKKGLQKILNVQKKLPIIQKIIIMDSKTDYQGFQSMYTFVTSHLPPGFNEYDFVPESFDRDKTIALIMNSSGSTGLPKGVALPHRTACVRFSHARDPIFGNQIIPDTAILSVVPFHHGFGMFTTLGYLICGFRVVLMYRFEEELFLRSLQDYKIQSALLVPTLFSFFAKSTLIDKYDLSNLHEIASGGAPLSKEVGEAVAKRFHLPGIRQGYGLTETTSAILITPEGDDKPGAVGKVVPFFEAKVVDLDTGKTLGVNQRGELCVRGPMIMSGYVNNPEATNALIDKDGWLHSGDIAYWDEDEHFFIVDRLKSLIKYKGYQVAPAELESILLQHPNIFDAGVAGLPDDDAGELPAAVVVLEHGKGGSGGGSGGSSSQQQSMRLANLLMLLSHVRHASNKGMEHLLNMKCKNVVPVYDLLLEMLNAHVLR
(§2) Methods and techniques for cell line cultivation are well-known to experts in the field and are explained here only indicatively, with the intention of clarifying the example. Cell cultures of HEK293T cells were grown at 37° C. and 5% CO2. For cultivation, DMEM medium with 10% FBS, containing all the necessary nutrients and growth factors was used. When the cell population reached a sufficient density, the cells were transferred to a new flask and/or diluted. For use in experiments, the number of cells was determined by the Countess automated cell counter (Invitrogen). A 96-well microtiter plate, suitable for growing cell cultures, was inoculated with 2*10^4 cells per well 24 hours prior to transfection.

Experiment [2] deals with split ligand binding domain of glucocorticoid receptor (GR2). Briefly: CISPA sensor, split LBD of GR2 fused to split firefly luciferase, in HEK293T cells. Type of experiment: cell-based, human. The conditions noted are these: increasing ligand concentration, compared to cells not stimulated, FIG. 2B.
From the text: as §1, §2

Experiment [3] relates to split dihydrofolate reductase (DHFR). Briefly: CISPA sensor, split DHFR fused to split firefly luciferase, in HEK293T cells. Type of experiment: cell-based, human. The conditions noted are these: increasing ligand concentration, compared to cells not stimulated, FIG. 3B. The protocol:
as §2
A constitutively expressed Renilla luciferase (phRL-TK http://www.promega.com/vectors/prltk.txf) was used as control of transfection efficiency.

4-hydroxytamoxifen: the “firefly luciferase activity (dimerization of split ERβ CISPA sensor)” value in experiment [1] is “concentration-dependent manner”.
For `C[C@]12CCC(=O)C=C1CC[C@@H]1[C@@H]2[C@@H](O)C[C@@]2(C)[C@H]1CC[C@]2(O)C(=O)CO` [cortisol], the “firefly luciferase activity (dimerization of split GR2 CISPA sensor)” value in experiment [2] was “an increase in the firefly luciferase activity is observed”.
With `CN(Cc1cnc2nc(N)nc(N)c2n1)c1ccc(C(=O)N[C@@H](CCC(=O)O)C(=O)O)cc1` [methotrexate], the “firefly luciferase activity (dimerization of split DHFR CISPA sensor)” value in experiment [3] is reported as “an increase in firefly luciferase activity is observed”.
Still for that read-out and setting: the result for `C#CCC(Cc1cnc2nc(N)nc(N)c2n1)c1ccc(C(=O)N[C@@H](CCC(=O)O)C(=O)O)cc1` (stereo partly shown) [pralatrexate] reads “an increase in firefly luciferase activity is observed”.
